Experiments:
Assay type in all cases: cell-based
A549-L = test: Inhibition of cell proliferation, A549-L; settings: lung; 72 h; methylene blue or CellTiter-Glo
Description: (§1) II. Inhibition of Cell Proliferation by PLK1 Inhibitors.
(§2) Exponentially growing cell lines of different tumor origins, cultured in appropriate media containing 10% fetal bovine serum at 37° C. in a 5% CO2 incubator were plated in 96 or 384-well plates. Twenty four hours post-plating, cells were treated with different concentrations of test compounds ranging from 20 μM to 0.04 nM. Several wells were left untreated as a control. Seventy two hours post-treatment, cell numbers were determined using different techniques; 100 μl per well of methylene blue (Sigma M9140) (0.5% in 50:50 Ethanol:water), or 10-100 μl per well of CellTiter-Glo (Promega #G7573), depending on well size. For methylene blue staining, stain was incubated at room temperature for 30 minutes before plates were rinsed and dye solubilized in 1% N-lauroyl sarcosine, sodium salt, (Sigma L5125, in PBS). Plates were read on a microplate reader, measuring the OD at 620 nm. For CellTiter-Glo, plates were incubated at room temperature for 15 minutes and the chemiluminescent signal was read on the Victor V or Envison 2100 reader.
(§3) Percent inhibition of cell growth was expressed as percent proliferation relative to 100% proliferation (control). Concentration of test compound that inhibited 50% of cell growth (IC50) was determined by 4 parameter fit of data using XLfit, (value of no cell control was substracted from all samples for background). The data are shown in Table 1 and Table 2 below and represent a compilation of several different experiments each performed using the general parameters outlined above, although minor variations may have been employed in some instances, in Table 1 and Table 2, +=IC50>1 μM; ++=IC50 0.5-1 μM: +++=IC50<0.5 μM.

HT29 = test: Inhibition of cell proliferation, HT29; settings: Homo sapiens, HT-29; Colon; 72 h; methylene blue or CellTiter-Glo
Description: as §1, §2, §3

MX-1 = test: Inhibition of cell proliferation, MX-1; settings: Homo sapiens, MX1; Breast; 72 h; methylene blue or CellTiter-Glo
Description: as §1, §2, §3

SKOV-3 = test: Inhibition of cell proliferation, SKOV-3; settings: Homo sapiens, SK-OV-3; Ovarian; 72 h; methylene blue or CellTiter-Glo
Description: as §1, §2, §3

Hela = test: Inhibition of cell proliferation, Hela; settings: Homo sapiens, Cervical, 72 h, methylene blue or CellTiter-Glo
Description: as §1, §2
(§4) Percent inhibition of cell growth was expressed as percent proliferation relative to 100% proliferation (control). […]

MCF7 = test: Inhibition of cell proliferation, MCF7; settings: Homo sapiens, Breast, 72 h, methylene blue or CellTiter-Glo
Description: as §1, §2, §4

PANC-1 = test: Inhibition of cell proliferation, PANC-1; settings: Homo sapiens, pancreatic, 72 h, methylene blue or CellTiter-Glo
Description: as §1, §2, §4

BXPC3 = test: Inhibition of cell proliferation, BXPC3; settings: Homo sapiens, BXPC-3; Pancreatic; 72 h; methylene blue or CellTiter-Glo
Description: as §1, §2, §4

RPMI 8226 = test: Inhibition of cell proliferation, RPMI 8226; settings: Homo sapiens, leukemia, 72 h, methylene blue or CellTiter-Glo
Description: as §1, §2, §4

BT474 = test: Inhibition of cell proliferation, BT474; settings: Homo sapiens, BT-474; breast; 72 h; methylene blue or CellTiter-Glo
Description: as §1, §2, §4

HCC1937 = test: Inhibition of cell proliferation, HCC1937; settings: Homo sapiens, breast, 72 h, methylene blue or CellTiter-Glo
Description: as §1, §2, §4

HCC1954 = test: Inhibition of cell proliferation, HCC1954; settings: Homo sapiens, breast, 72 h, methylene blue or CellTiter-Glo
Description: as §1, §2, §4

SK-BR-3 = test: Inhibition of cell proliferation, SK-BR-3; settings: Homo sapiens, breast, 72 h, methylene blue or CellTiter-Glo
Description: as §1, §2, §4

LoVo = test: Inhibition of cell proliferation, LoVo; settings: Homo sapiens, colon, 72 h, methylene blue or CellTiter-Glo
Description: as §1, §2, §4

A 704 = test: Inhibition of cell proliferation, A 704; settings: Homo sapiens, A704; kidney; 72 h; methylene blue or CellTiter-Glo
Description: as §1, §2, §4

A498 = test: Inhibition of cell proliferation, A498; settings: Homo sapiens, kidney, 72 h, methylene blue or CellTiter-Glo
Description: as §1, §2, §4

Calu1 = test: Inhibition of cell proliferation, Calu1; settings: Homo sapiens, Calu-1; lung; 72 h; methylene blue or CellTiter-Glo
Description: as §1, §2, §4

NCI-H358 = test: Inhibition of cell proliferation, NCI-H358; settings: Homo sapiens, lung, 72 h, methylene blue or CellTiter-Glo
Description: as §1, §2, §4

NCI-H727 = test: Inhibition of cell proliferation, NCI-H727; settings: Homo sapiens, lung, 72 h, methylene blue or CellTiter-Glo
Description: as §1, §2, §4

Capan-2 = test: Inhibition of cell proliferation, Capan-2; settings: Homo sapiens, pancreas, 72 h, methylene blue or CellTiter-Glo
Description: as §1, §2, §4

BC-1 = test: Inhibition of cell proliferation, BC-1; settings: Homo sapiens, BC1; peripheral blood; 72 h; methylene blue or CellTiter-Glo
Description: as §1, §2, §4

BC-2 = test: Inhibition of cell proliferation, BC-2; settings: peripheral blood, 72 h, methylene blue or CellTiter-Glo
Description: as §1, §2, §4

BDCM = test: Inhibition of cell proliferation, BDCM; settings: peripheral blood; 72 h; methylene blue or CellTiter-Glo
Description: as §1, §2, §4

CA46 = test: Inhibition of cell proliferation, CA46; settings: Homo sapiens, peripheral blood, 72 h, methylene blue or CellTiter-Glo
Description: as §1, §2, §4

CRO-AP2 = test: Inhibition of cell proliferation, CRO-AP2; settings: Homo sapiens, peripheral blood, 72 h, methylene blue or CellTiter-Glo
Description: as §1, §2, §4

EB-3 = test: Inhibition of cell proliferation, EB-3; settings: Homo sapiens, peripheral blood, 72 h, methylene blue or CellTiter-Glo
Description: as §1, §2, §4

SKMEL28 = test: Inhibition of cell proliferation, SKMEL28; settings: Homo sapiens, SK-MEL-28; skin; 72 h; methylene blue or CellTiter-Glo
Description: as §1, §2, §4

SKMEL3 = test: Inhibition of cell proliferation, SKMEL3; settings: Homo sapiens, SK-MEL3; skin; 72 h; methylene blue or CellTiter-Glo
Description: as §1, §2, §4

SKMEL5 = test: Inhibition of cell proliferation, SKMEL5; settings: Homo sapiens, SK-MEL-5; skin; 72 h; methylene blue or CellTiter-Glo
Description: as §1, §2, §4

NCI-N87 = test: Inhibition of cell proliferation, NCI-N87; settings: Homo sapiens, stomach, 72 h, methylene blue or CellTiter-Glo
Description: as §1, §2, §4

C[C@@H](Oc1cc(-n2cnc3cc(-c4cnn(C)c4)ccc32)sc1C(N)=O)c1cccc(OC2CCN(C)CC2)c1Cl [Example 48]
IC50 (A549-L): < 500 nM
IC50 (HT29): < 500 nM
IC50 (MX-1): < 500 nM
IC50 (SKOV-3): < 500 nM
IC50 (Hela): < 500 nM
IC50 (MCF7): < 500 nM
IC50 (PANC-1): < 500 nM
IC50 (BXPC3): < 500 nM
IC50 (RPMI 8226): < 500 nM
IC50 (BT474): > 1000 nM
IC50 (HCC1937): > 1000 nM
IC50 (HCC1954): < 500 nM
IC50 (SK-BR-3): < 500 nM
IC50 (LoVo): < 500 nM
IC50 (A 704): < 500 nM
IC50 (A498): < 500 nM
IC50 (Calu1): < 500 nM
IC50 (NCI-H358): < 500 nM
IC50 (NCI-H727): > 1000 nM
IC50 (Capan-2): > 1000 nM
IC50 (BC-1): < 500 nM
IC50 (BC-2): > 1000 nM
IC50 (BDCM): < 500 nM
IC50 (CA46): < 500 nM
IC50 (CRO-AP2): < 500 nM
IC50 (EB-3): < 500 nM
IC50 (SKMEL28): > 1000 nM
IC50 (SKMEL3): < 500 nM
IC50 (SKMEL5): < 500 nM
IC50 (NCI-N87): < 500 nM
